PubChem BioAssay (NCI)
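Each compound was tested at five concentrations against cells in 96-well plates for 48 hours. TGI: total growth inhibition.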

Legend:
Assay in all cases: DTP human tumour cell line panel, 48 h
786-0 renal = tested on: 786-0 renal
A498 renal = tested on: A498 renal
A549 NSCLC = tested on: A549 NSCLC
ACHN renal = tested on: ACHN renal
BT-549 breast = tested on: BT-549 breast
CAKI-1 renal = tested on: CAKI-1 renal
CCRF-CEM leukemia = tested on: CCRF-CEM leukemia
COLO 205 colon = tested on: COLO 205 colon
DU-145 prostate = tested on: DU-145 prostate
EKVX NSCLC = tested on: EKVX NSCLC
HCC-2998 colon = tested on: HCC-2998 colon
HCT-116 colon = tested on: HCT-116 colon
HCT-15 colon = tested on: HCT-15 colon
HL-60(TB) leukemia = tested on: HL-60(TB) leukemia
HOP-62 NSCLC = tested on: HOP-62 NSCLC
HOP-92 NSCLC = tested on: HOP-92 NSCLC
HS 578T breast = tested on: HS 578T breast
HT29 colon = tested on: HT29 colon
IGROV1 ovarian = tested on: IGROV1 ovarian
K-562 leukemia = tested on: K-562 leukemia
KM12 colon = tested on: KM12 colon
LOX IMVI melanoma = tested on: LOX IMVI melanoma
M14 melanoma = tested on: M14 melanoma
MALME-3M melanoma = tested on: MALME-3M melanoma
MCF7 breast = tested on: MCF7 breast
MDA-MB-231 breast = tested on: MDA-MB-231 breast
MDA-MB-435 = tested on: MDA-MB-435
MDA-N = tested on: MDA-N
MOLT-4 leukemia = tested on: MOLT-4 leukemia
NCI-H226 lung = tested on: NCI-H226 lung
NCI-H23 lung = tested on: NCI-H23 lung
NCI-H460 lung = tested on: NCI-H460 lung
NCI-H522 lung = tested on: NCI-H522 lung
NCI/ADR-RES ovarian = tested on: NCI/ADR-RES ovarian
OVCAR-3 ovarian = tested on: OVCAR-3 ovarian
OVCAR-4 ovarian = tested on: OVCAR-4 ovarian
OVCAR-5 ovarian = tested on: OVCAR-5 ovarian
OVCAR-8 ovarian = tested on: OVCAR-8 ovarian
PC-3 prostate = tested on: PC-3 prostate
RPMI-8226 leukemia = tested on: RPMI-8226 leukemia
RXF 393 renal = tested on: RXF 393 renal
SF-268 CNS = tested on: SF-268 CNS
SF-295 CNS = tested on: SF-295 CNS
SK-MEL-2 melanoma = tested on: SK-MEL-2 melanoma
SK-MEL-28 melanoma = tested on: SK-MEL-28 melanoma
SK-MEL-5 melanoma = tested on: SK-MEL-5 melanoma
SK-OV-3 ovarian = tested on: SK-OV-3 ovarian
SN12C renal = tested on: SN12C renal
SNB-19 CNS = tested on: SNB-19 CNS
SR leukemia = tested on: SR leukemia
SW-620 colon = tested on: SW-620 colon
T-47D breast = tested on: T-47D breast
TK-10 renal = tested on: TK-10 renal
U251 CNS = tested on: U251 CNS
UACC-257 melanoma = tested on: UACC-257 melanoma
UACC-62 melanoma = tested on: UACC-62 melanoma
UO-31 renal = tested on: UO-31 renal
DLD-1 colon = tested on: DLD-1 colon
DMS 114 small cell lung = tested on: DMS 114 small cell lung
DMS 273 small cell lung = tested on: DMS 273 small cell lung
HOP-18 NSCLC = tested on: HOP-18 NSCLC
LXFL 529 NSCLC = tested on: LXFL 529 NSCLC
M19-MEL melanoma = tested on: M19-MEL melanoma
SF-539 CNS = tested on: SF-539 CNS
SNB-75 CNS = tested on: SNB-75 CNS

CC(C)(C)OC(=O)NCCCCC1NC(=O)[C@@H]2Cc3c([nH]c4ccccc34)C(c3ccccc3)N2C1=O (some centres undefined)
TGI (786-0 renal): 82.3 µM
TGI (A498 renal): > 100 µM
TGI (A549 NSCLC): > 100 µM
TGI (ACHN renal): > 100 µM
TGI (BT-549 breast): 68.4 µM
TGI (CAKI-1 renal): > 100 µM
TGI (CCRF-CEM leukemia): > 100 µM
TGI (COLO 205 colon): 46.9 µM
TGI (DU-145 prostate): > 100 µM
TGI (EKVX NSCLC): > 100 µM
TGI (HCC-2998 colon): 40.3 µM
TGI (HCT-116 colon): > 100 µM
TGI (HCT-15 colon): > 100 µM
TGI (HL-60(TB) leukemia): 52.3 µM
TGI (HOP-62 NSCLC): > 100 µM
TGI (HOP-92 NSCLC): 85.1 µM
TGI (HS 578T breast): 49.6 µM
TGI (HT29 colon): 87.5 µM
TGI (IGROV1 ovarian): > 100 µM
TGI (K-562 leukemia): > 100 µM
TGI (KM12 colon): > 100 µM
TGI (LOX IMVI melanoma): 56.4 µM
TGI (M14 melanoma): 92.3 µM
TGI (MALME-3M melanoma): > 100 µM
TGI (MCF7 breast): > 100 µM
TGI (MDA-MB-231 breast): 94.6 µM
TGI (MDA-MB-435): > 100 µM
TGI (MDA-N): > 100 µM
TGI (MOLT-4 leukemia): 60.2 µM
TGI (NCI-H226 lung): > 100 µM
TGI (NCI-H23 lung): > 100 µM
TGI (NCI-H460 lung): > 100 µM
TGI (NCI-H522 lung): > 100 µM
TGI (NCI/ADR-RES ovarian): > 100 µM
TGI (OVCAR-3 ovarian): 49.2 µM
TGI (OVCAR-4 ovarian): > 100 µM
TGI (OVCAR-5 ovarian): > 100 µM
TGI (OVCAR-8 ovarian): > 100 µM
TGI (PC-3 prostate): > 100 µM
TGI (RPMI-8226 leukemia): > 100 µM
TGI (RXF 393 renal): 42.2 µM
TGI (SF-268 CNS): > 100 µM
TGI (SF-295 CNS): 45.4 µM
TGI (SK-MEL-2 melanoma): 50.5 µM
TGI (SK-MEL-28 melanoma): > 100 µM
TGI (SK-MEL-5 melanoma): 97.8 µM
TGI (SK-OV-3 ovarian): > 100 µM
TGI (SN12C renal): 79.6 µM
TGI (SNB-19 CNS): > 100 µM
TGI (SR leukemia): 62.8 µM
TGI (SW-620 colon): > 100 µM
TGI (T-47D breast): > 100 µM
TGI (TK-10 renal): > 100 µM
TGI (U251 CNS): > 100 µM
TGI (UACC-257 melanoma): > 100 µM
TGI (UACC-62 melanoma): 95.6 µM
TGI (UO-31 renal): > 100 µM

CC(=O)OCC1OC(OC(C)=O)C(NC#N)C(OC(C)=O)C1OC(C)=O (centres undefined)
TGI (786-0 renal): > 100 µM
TGI (A498 renal): > 100 µM
TGI (A549 NSCLC): > 100 µM
TGI (ACHN renal): > 100 µM
TGI (CAKI-1 renal): > 100 µM
TGI (CCRF-CEM leukemia): > 100 µM
TGI (COLO 205 colon): > 100 µM
TGI (DLD-1 colon): > 100 µM
TGI (DMS 114 small cell lung): > 100 µM
TGI (DMS 273 small cell lung): > 100 µM
TGI (HCC-2998 colon): > 100 µM
TGI (HCT-116 colon): > 100 µM
TGI (HCT-15 colon): > 100 µM
TGI (HL-60(TB) leukemia): > 100 µM
TGI (HOP-18 NSCLC): > 100 µM
TGI (HOP-62 NSCLC): > 100 µM
TGI (HOP-92 NSCLC): > 100 µM
TGI (HT29 colon): > 100 µM
TGI (IGROV1 ovarian): > 100 µM
TGI (K-562 leukemia): > 100 µM
TGI (KM12 colon): > 100 µM
TGI (LOX IMVI melanoma): > 100 µM
TGI (LXFL 529 NSCLC): > 100 µM
TGI (M14 melanoma): > 100 µM
TGI (M19-MEL melanoma): > 100 µM
TGI (MALME-3M melanoma): > 100 µM
TGI (MOLT-4 leukemia): > 100 µM
TGI (NCI-H23 lung): > 100 µM
TGI (NCI-H460 lung): > 100 µM
TGI (NCI-H522 lung): > 100 µM
TGI (OVCAR-3 ovarian): > 100 µM
TGI (OVCAR-4 ovarian): > 100 µM
TGI (OVCAR-5 ovarian): > 100 µM
TGI (OVCAR-8 ovarian): > 100 µM
TGI (RPMI-8226 leukemia): > 100 µM
TGI (RXF 393 renal): > 100 µM
TGI (SF-268 CNS): > 100 µM
TGI (SF-295 CNS): > 100 µM
TGI (SF-539 CNS): > 100 µM
TGI (SK-MEL-2 melanoma): > 100 µM
TGI (SK-MEL-28 melanoma): > 100 µM
TGI (SK-MEL-5 melanoma): > 100 µM
TGI (SK-OV-3 ovarian): > 100 µM
TGI (SN12C renal): > 100 µM
TGI (SNB-19 CNS): > 100 µM
TGI (SNB-75 CNS): > 100 µM
TGI (SR leukemia): > 100 µM
TGI (SW-620 colon): > 100 µM
TGI (TK-10 renal): > 100 µM
TGI (U251 CNS): > 100 µM
TGI (UACC-62 melanoma): > 100 µM
TGI (UO-31 renal): > 100 µM
